The nature of data set [1]: Pharmacokinetic experiment in mice after intragastric administration (plasma and lung tissue, LC/MS/MS). In kind it is in vivo. Particulars: ICR, mouse, intragastric administration at 20 mg/kg; for concentration at 6 h: lung, oral, read-out: Lung tissue drug concentration at 6 h; for half-life: plasma, po. The procedure: The compounds of the present invention for intragastric administration were dissolved in a suitable solvent to form a clear solution or suspension.
Administration mode and dosage: The compounds of the present invention were administered intragastrically at 10 mg/kg or 20 mg/kg.
Number of animals: 3 ICR mice per group for intragastric administration.
Sample collection: For the intragastric administration group, 100 µL of blood was collected (using pre-heparinized 100 µL Capillary Blood Collection Tubes) from the orbital vein of mice at 0.25 h, 0.5 h, 1 h, 2 h, 4 h, and 6 h after administration and placed in heparin sodium anticoagulant tubes. Mice plasma samples were obtained by centrifugation at 3000 g for 10 minutes within 2 hours. For the intragastric administration group, clean blood was collected at 6-hour time point and then lung tissues were collected.
Sample treatment: Plasma and lung tissue homogenates were subjected to protein precipitation with methanol at a certain ratio, and the supernatant was taken and diluted with 50% methanol-water at a certain ratio for sample loading.
Sample detection: The drug concentration in plasma was detected by the LC/MS/MS method, and the drug-time curve was plotted. Pharmacokinetic parameters (such as T1/2(h)/AUC0-t) were calculated by non-compartmental model statistical moments to describe the pharmacokinetic behavior of the compounds in mice after administration.
Data processing: Pharmacokinetic parameters were calculated by WinNonlin.

A further data set deals with RSV strain A2. As to the kind of experiment: Antiviral detection test against RSV strain A2 based on ELISA method (Hep-2 cells). In kind it is cell-based, Respiratory Syncytial Virus. Particulars: for IC50: human respiratory syncytial virus, RSV A2 virus strain, Hep-2 cells, ELISA OD450; for AK0529 IC50 / IC50 of the compounds of the present invention: ratio of IC50 values against RSV A2 virus strain, control compound AK0529. The procedure:
Test Example 1: Antiviral detection test of small molecules against RSV strain A2 based on ELISA method
• Source of cell line: Nanjing Kebai Biotechnology Co., Ltd. • Cell type: human laryngeal carcinoma epithelial cells Hep-2
• 96-well culture plate (Cat.No. 3610, Corning Costar); • Fetal bovine serum (Cat.No. 10099-141, GIBCO); • DMEM medium (Cat.No. 11995500BT, GIBCO); • Envision 2104 microplate reader.
• 1. Day 1: The Hep-2 cells were seeded into a 96-well plate at a density of 1×10^4 cells/well; • 2. Day 2: • A. Compound dilution: The compound in the first well was diluted to 9 µM, and 3-fold gradient dilution was performed, with a total of 10 gradients; • B. The Hep-2 cell plate prepared on Day 1 was taken out from the incubator, the supernatant was discarded, and 100 PFU/well/50 µL of the RSV A2 virus was added to each well. The plate was stood at 37°C in a 5% CO2 incubator for 2 hours, the supernatant was aspirated and discarded, and then 100 µL of the gradient-diluted compound or DMEM maintenance medium containing 2% FBS was added to each well; • 3. Day 5: • A. Add fixative: The gradient-diluted compound or medium was discarded from the wells, and 100 µL/well of fixative (4% paraformaldehyde) was added. The plate was stood at room temperature for 10 minutes, and then was washed once with 250 µL PBS; • B. 100 µL/well of a blocking solution was added, and the plate was incubated at 37°C in a 5% CO2 incubator for 30 minutes; • C. After incubation, the detection antibody (Anti RSV Fpro) was added at 0.3 µg/50 µL/well (6 µg/mL), and the plate was incubated at 37°C in a 5% CO2 incubator for 1 hour; • D. After incubation, the HRP secondary antibody was added (diluted 10,000-fold with 0.2% BSA), and the plate was incubated at 37°C in a 5% CO2 incubator for 1 hour; • E. After incubation, the wells were washed for 4 times with PBST, 250 µL/well, each washing was allowed to stand for 5 minutes, and the liquid in the wells was shaken off after completion of the washing; • F. 100 µL/well of a development solution was added, the plate was incubated at room temperature in the dark for 20 minutes, and 50 µL/well of a reaction termination solution was added. The plate was tapped gently to mix the solutions, and the absorbance at 450 nm was measured using the microplate reader. • 4. Data analysis • Inhibition rate of the compound against the virus = 100% - (SC - CC)/(VC - CC) × 100% • SC: OD450 value of the sample (cells + test compound + virus) • CC: OD450 value of the normal growing cell control (cells) • VC: OD450 value of the virus growth control (cells + virus)
The software Graphpad Prism 6 was used, and the calculation formula XY-analysis/Nonlinear regression (curve fit)/Dose response-Inhibition/log (inhibition) vs. response-Variable slope (four parameters) was adopted to fit the IC50 curve and calculate the IC50 value.

Each structure is given as a SMILES string.

By half-life is commonly meant the time in which the quantity being followed falls by half. A lower half-life goes with rapid decline. Regarding `Cc1ccc2nc(N3CCS(=O)(=NC4CC4)c4ccccc4C3)nc(N3CC4C(N)C4C3)c2c1` (centres unmarked) [Example 4-8, 4-(4-(6-amino-3-azabicyclo[3.1.0]hexan-3-yl)-6-methylquinazolin-2-yl)-1-(cyclopropylimino)-2,3,4,5-tetrahydro-benzo[f][1,4]thiazepine-1-oxide], in data set [1], the concentration at 6 h turned out to be 25300 ng/g and the half-life was 648 min.

As a reminder, the IC50 is the concentration that gives 50% inhibition. The low end stands for inhibition by little substance, the high end for a need for much substance. For the molecule `Cc1ccc2nc(N3CCS(=O)(=NC4CC4)c4ccccc4C3)nc(N3CC(CN)C3)c2c1` (centres unmarked) [Example 4-9, 4-(4-(3-(aminomethyl)azetidin-1-yl)-6-methylquinazolin-2-yl)-1-(cyclopropylimino)-2,3,4,5-tetrahydro-benzo[f][1,4]thiazepine-1-oxide], the IC50 in the data set with RSV strain A2 is under 10 nM. For the same molecule, in data set [1], the concentration at 6 h came out at 5920 ng/g and the half-life is 373 min.

Take `Cc1ccc2nc(N3CCS(=O)(=NC4CC4)c4ccccc4C3)nc(N3CC[C@@H](N)C3)c2c1` (some centres unmarked) [Example 4-12]: the IC50 in the data set with RSV strain A2 is under 10 nM. In addition, in data set [1], the concentration at 6 h was 29700 ng/g and the half-life is 386 min.

With `Cc1ccc2nc(N3CCS(=O)(=NC4CC4)c4ccccc4C3)nc(NCC3(N)COC3)c2c1C` (centres unmarked) [Example 4-15, 4-(4-(((3-aminooxetan-3-yl)methyl)amino)-5,6-dimethylquinazolin-2-yl)-1-(cyclopropylimino)-2,3,4,5-tetrahydro-benzo[f][1,4]thiazepine-1-oxide], in data set [1], the concentration at 6 h is 5130 ng/g and the half-life is 96.6 min.

Regarding `NC1CN(c2nc(N3CCS(=O)(=NC4CC4)c4ccccc4C3)nc3ccc(C(F)F)cc23)C1` (centres unmarked) [Example 4-17, 4-(4-(3-aminoazetidin-1-yl)-6-(difluoromethyl)quinazolin-2-yl)-1-(cyclopropylimino)-2,3,4,5-tetrahydro-benzo[f][1,4]thiazepine-1-oxide], in the data set with RSV strain A2, the IC50 was under 10 nM and the “AK0529 IC50 / IC50 of the compounds of the present invention” value (“AK0529 IC50 / IC50” for short) is listed as “ratio ≥20”. In data set [1], the concentration at 6 h is 75800 ng/g and the half-life is 317 min.

On to `Cc1ccc2nc(N3CCS(=O)(=NC4CC4)c4ccccc4C3)nc(N[C@H]3CNC[C@@H]3F)c2c1` (stereo partly drawn) [Example 4-24, 1-(cyclopropylimino)-4-(4-(((3S,4S)-4-fluoropyrrolidin-3-yl)amino)-6-methylquinazolin-2-yl)-2,3,4,5-tetrahydrobenzo[f][1,4]thiazepine-1-oxide], for which, in the data set on RSV strain A2, the IC50 was under 10 nM and the “AK0529 IC50 / IC50” value is listed as “ratio ≥20”. In data set [1], the concentration at 6 h is 15400 ng/g and the half-life was 269 min.

For the molecule `Cc1ccc2nc(N3CCS(=O)(=NC4CCOC4)c4ccccc4C3)nc(N3CC[C@@H](N)C3)c2c1` (some centres unmarked) [Example 4-43], the IC50 in the data set on RSV strain A2 was under 10 nM. In data set [1], the concentration at 6 h amounted to 19200 ng/g and the half-life was 140 min.

`N[C@H]1CCN(c2nc(N3CCS(=O)(=NC4CC4)c4ccccc4C3)nc3ccc(C(F)F)cc23)C1` (stereo partly drawn) [Example 4-62, 4-(4-((S)-3-aminopyrrolidin-1-yl)-6-(difluoromethyl)quinazolin-2-yl)-1-(cyclopropylimino)-2,3,4,5-tetrahydro-benzo[f][1,4]thiazepine-1-oxide]: in the data set on RSV strain A2, the IC50 was under 10 nM. Besides, in data set [1], the concentration at 6 h was determined as 53100 ng/g.

Consider `CC(O)(CCN=S1(=O)CCN(c2nc(N3CC[C@H](N)C3)c3cc(C(F)F)ccc3n2)Cc2ccccc21)C(F)(F)F` (stereo partly drawn) [Example 4-63, 4-(4-((S)-3-aminopyrrolidin-1-yl)-6-(difluoromethyl)quinazolin-2-yl)-1-((4,4,4-trifluoro-3-hydroxy-3-methylbutyl)imino)-2,3,4,5-tetrahydro-benzo[f] [1,4]thiazepine-1-oxide], for which the IC50 with RSV strain A2 was under 10 nM.

Turning to `Cc1ccc2nc(N3CCS(=O)(=NCCCO)c4ccccc4C3)nc(N3CC[C@H](N)C3)c2c1` (some centres unmarked) [Example 4-64], the IC50 in the data set with RSV strain A2 is under 10 nM.

Turning to `Cc1ccc2nc(N3CCS(=O)(=NCCS(C)(=O)=O)c4ccccc4C3)nc(N3CC[C@H](N)C3)c2c1` (some centres unmarked) [Example 4-65], the IC50 in the data set on RSV strain A2 is under 10 nM.

`N[C@H]1CCN(c2nc(N3CCS(=O)(=NCCCO)c4ccccc4C3)nc3ccc(C(F)F)cc23)C1` (some centres unmarked) [Example 4-66] had an IC50 in the data set on RSV strain A2 of under 10 nM.

For `Cc1ccc2nc(N3CCS(=O)(=NC4CCOC4)c4ccccc4C3)nc(N3CC[C@H](N)C3)c2c1` (some centres unmarked) [Example 4-67], in the data set with RSV strain A2, the IC50 is under 10 nM. Further, in data set [1], the concentration at 6 h came out at 8220 ng/g and the half-life is 130 min.

Regarding `COCC(C)N=S1(=O)CCN(c2nc(N3CC[C@H](N)C3)c3cc(C)ccc3n2)Cc2ccccc21` (some centres unmarked) [Example 4-69], in the data set with RSV strain A2, the IC50 was under 10 nM. In data set [1], the concentration at 6 h amounted to 6010 ng/g and the half-life was 137 min.

For the molecule `Cc1ccc2nc(N3CCS(=O)(=NCC4CCCO4)c4ccccc4C3)nc(N3CC[C@H](N)C3)c2c1` (some centres unmarked) [Example 4-70], the IC50 in the data set on RSV strain A2 was under 10 nM.

Molecule `COCCCN=S1(=O)CCN(c2nc(N3CC[C@H](N)C3)c3cc(C)ccc3n2)Cc2ccccc21` (some centres unmarked) [Example 4-71] showed an IC50 in the data set with RSV strain A2 of under 10 nM.

`Cc1ccc2nc(N3CCS(=O)(=NCC4CCOC4)c4ccccc4C3)nc(N3CC[C@H](N)C3)c2c1` (some centres unmarked) [Example 4-72] registered an IC50 in the data set on RSV strain A2 of under 10 nM.

In the data set with RSV strain A2, `COCCCN=S1(=O)CCN(c2nc(N3CC[C@@H](N)C3)c3cc(C)ccc3n2)Cc2ccccc21` (some centres unmarked) [Example 4-73] had an IC50 of under 10 nM.

Turning to `N[C@H]1CCN(c2nc(N3CCS(=O)(=NCC4CCO4)c4ccccc4C3)nc3ccc(C(F)F)cc23)C1` (stereo partly drawn) [Example 4-74, 4-(4-((S)-3-aminopyrrolidin-1-yl)-6-(difluoromethyl)quinazolin-2-yl)-1-((oxetan-2-ylmethyl)imino)-2,3,4,5-tetrahydro-benzo[f][1,4]thiazepine-1-oxide], in the data set on RSV strain A2, the IC50 is under 10 nM and the “AK0529 IC50 / IC50” value was “ratio ≥20”. Further, in data set [1], the concentration at 6 h came out at 7170 ng/g and the half-life is 149 min.

Take `Cc1ccc2nc(N3CCS(=O)(=NC4CC4)c4ccccc4C3)nc(N3CC(N)C3)c2c1` (centres unmarked) [Example 4-76, 4-(4-(3-aminoazetidin-1-yl)-6-methylquinazolin-2-yl)-1-(cyclopropylimino)-2,3,4,5-tetrahydrobenzo[f][1,4]thiazepine-1-oxide]: in the data set on RSV strain A2, the IC50 is under 10 nM and the “AK0529 IC50 / IC50” value was “ratio ≥20”. Besides, the concentration at 6 h in data set [1] is 28800 ng/g.

(Values after patent EP4745139A1, “COMPOUND FOR TREATING AND PREVENTING RESPIRATORY SYNCYTIAL VIRUS INFECTION DISEASES” (CSPC Zhongqi Pharmaceutical Technology (Shijiazhuang) Co., …, priority 2023, dated 2025).)
